Measurements: patent US5187103A, “Colorimetric method and reagent for the assay of lithium in a test sample” (Miles Inc., priority 1991, dated 1993)

What was measured:
[1] = pKa in 10% DEGMEE-water, determined spectrophotometrically (Table II); type: physicochemical; conditions: for pKa: spectrophotometric
[2] = Ion selectivity and sensitivity of larger cavity cryptand analogs
[3] = UV-VIS spectra of the cryptand in complexation with various ions (Table I); type: physicochemical
Description: (§1) The UV-VIS spectra of p-nitrophenylazophenol (1.1.0) cryptand in complexation with various ions, i.e. Na^+ K^+, and Li^+, were determined in 1 to 2×10^-4 M solutions of the cryptand in 2 to 50% volume to volume (v/v) DEGMEE in water. A 1×10^-2 M stock solution of the cryptand was prepared in DEGMEE. Typically, the solutions were prepared as follows: for the spectral characteristics in 10% v/v DEGMEE, 0.2 ml of the stock solution was added to 0.8 ml DEGMEE. The diluted cryptand was quantitatively transferred to 9.0 ml of the appropriate reagent and mixed. 1N HCl was used to obtain the acid form (HL) and 1M TMAOH for the base form of the cryptand which is designated in the following tables as L. Tne resulting solutions were scanned from 700 to 300 nm on a Beckman DU-8 spectrophotometer. The spectra of the cation complexes of p-nitrophenylazophenol (1.1.0) cryptand in 10% v/v DEGMEE/1M TMAOH were obtained by adding 0.02 ml LiCl, KCl, NaCl, all 1N to their respective cuvettes containing 2 ml of reagent and scanned from 700 to 300 nm.
Table I records the wavelength maxima and absorptivities of p-nitrophenylazophenol (1.1.0) cryptand when exposed to Na^+, K^+ and Li^+ ions in 10% v/v DEGMEE.

[4] = Effect of pH on response to cations in 10% v/v DEGMEE (Table III); type: physicochemical
Description: as §1
A zwitterionic buffer CAPS was used (Table III).

[5] = Effect of non-ionic surfactant on wavelength maxima and absorptivities (first Table IV); type: physicochemical; conditions: Brij-35 and Triton X-100 at 1% w/v; cryptand and its lithium complex
Source text: Non-ionic surfactants are known to interact with monoazo dyes producing a disturbance of the electronic spectrum.

[6] = Effect of organic solvent (DEGMEE) concentration on sensitivity and selectivity; conditions: 2.5% DEGMEE
Description: as §1
However, high concentration of solvent also affects the selectivity; at 25% DEGMEE, interference by 140 mM Na^+ corresponds to 0.1 mM Li^+, which is not acceptable for clinical purposes. The selectivity requirements of the lithium assay are high, in certain cases where the concentration of lithium is near 0.1 mM, the molar ratio of Li^+ :Na^+ is about 1:1500. […]

[7] = Spectral response to lithium (analytical wavelength); type: physicochemical
Description: as §1

[8] = Selectivity for Li^+ over Na^+ and other cations (slopes of response curves); conditions: sample to reagent ratio 1:40
Source text: By taking the ratio of the slope of the respective response curves, one obtains approximate selectivity of 4000:1 for Li^+ /Na^+.

[9] = 10% v/v DEGMEE, HL in 1N HCl, L and complexes in 1M TMAOH

O=[N+]([O-])c1ccc(N=Nc2cc3c(O)c(c2)CCCN2CCOCCN(CCC3)CCOCC2)cc1 [extended (1.1.0) cryptand]
pKa [1]: 11.5
response to lithium ([2]; extraction mode): very good response to lithium in the extraction mode

O=[N+]([O-])c1ccc(N=Nc2cc3c(O)c(c2)CCN2CCOCCN(CCOCC2)CC3)cc1 [HL]
λmax 1 [3, 9]: 494 nm
λmax 2 [3, 9]: 363 nm
ε 1 ([3]; absorptivity at λmax 1, 10% v/v DEGMEE): 8,800 M^-1 cm^-1
ε 2 ([3]; absorptivity at λmax 2, 10% v/v DEGMEE): 8,000 M^-1 cm^-1

O=[N+]([O-])c1ccc(N=Nc2cc3c(O)c(c2)CCN2CCOCCOCCN(CCOCCOCC2)CC3)cc1 [(2.2.0) cryptand, reference compound]
pKa [1]: 11.1
selectivity and sensitivity ([2]; effect of increased cavity size): more selective for potassium over sodium and lithium

O=[N+]([O-])c1ccc(N=Nc2cc3c(O)c(c2)CCN2CCOCCN(CCOCC2)CC3)cc1 [p-nitrophenylazophenol (1.1.0) cryptand]
wavelength maxima and absorptivities of acid form ([3]; acid form): two wavelength maxima (Table I) of equivalent absorptivities
pKa compared with larger cavity analogs or usual [1]: Higher than usual pKa
pKa [1]: 12.6
shift and absorptivity change with pH [4]: bathochromic shift with concurrent increase in absorptivity
effect of surfactant on λmax and absorptivities [5]: substantial bathochromic shift of the λmax and an increase in the absorptivities
reduction of response to lithium [6]: 25%
wavelength of decrease in absorbance with lithium [7]: 600 nm
wavelength of increase of the lithium complex [7]: 534 nm
selectivity over sodium [8]: almost total selectivity over sodium
